Each structure is given as a SMILES string.

From BindingDB's records for patent US20250289799 (Jiangsu Yahong Meditech Co., 2025) come the findings set out here.

The test concerns the target Ubiquitin carboxyl-terminal hydrolase 1/WD repeat-containing protein 48 (Homo sapiens, UniProt O94782+Q8TAF3). The experiment in a line: In Vitro USP1  Inhibitory Activity. Here is the method: Experimental Methods1) Preparation of 1× assay buffer: 1× assay buffer (modified Tris buffer) was prepared;2) Compound dilution: The compound was transferred to the assay plate by Echo.

Ubiquitin carboxyl-terminal hydrolase 1/WD repeat-containing protein 48, sequence (O94782 whole entry): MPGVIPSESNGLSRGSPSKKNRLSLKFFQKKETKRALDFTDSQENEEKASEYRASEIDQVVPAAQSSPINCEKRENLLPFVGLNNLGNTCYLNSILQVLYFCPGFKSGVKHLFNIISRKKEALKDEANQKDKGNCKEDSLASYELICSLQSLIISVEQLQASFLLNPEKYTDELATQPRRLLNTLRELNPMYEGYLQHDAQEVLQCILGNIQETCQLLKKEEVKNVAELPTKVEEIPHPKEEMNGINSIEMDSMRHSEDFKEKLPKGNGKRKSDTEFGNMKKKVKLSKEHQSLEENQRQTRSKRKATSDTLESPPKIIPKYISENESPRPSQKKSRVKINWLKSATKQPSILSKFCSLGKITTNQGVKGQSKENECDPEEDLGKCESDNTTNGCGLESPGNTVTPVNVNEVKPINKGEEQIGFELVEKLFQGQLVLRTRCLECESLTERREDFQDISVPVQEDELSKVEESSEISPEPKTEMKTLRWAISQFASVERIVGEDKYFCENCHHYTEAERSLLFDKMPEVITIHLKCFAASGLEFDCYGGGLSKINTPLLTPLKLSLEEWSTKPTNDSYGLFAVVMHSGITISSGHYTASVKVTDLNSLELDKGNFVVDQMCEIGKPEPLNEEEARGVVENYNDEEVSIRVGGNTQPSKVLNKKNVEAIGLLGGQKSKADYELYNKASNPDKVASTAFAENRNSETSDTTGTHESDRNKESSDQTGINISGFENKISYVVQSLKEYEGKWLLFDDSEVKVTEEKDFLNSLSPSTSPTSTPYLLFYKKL
Ubiquitin carboxyl-terminal hydrolase 1/WD repeat-containing protein 48, sequence (Q8TAF3 whole entry): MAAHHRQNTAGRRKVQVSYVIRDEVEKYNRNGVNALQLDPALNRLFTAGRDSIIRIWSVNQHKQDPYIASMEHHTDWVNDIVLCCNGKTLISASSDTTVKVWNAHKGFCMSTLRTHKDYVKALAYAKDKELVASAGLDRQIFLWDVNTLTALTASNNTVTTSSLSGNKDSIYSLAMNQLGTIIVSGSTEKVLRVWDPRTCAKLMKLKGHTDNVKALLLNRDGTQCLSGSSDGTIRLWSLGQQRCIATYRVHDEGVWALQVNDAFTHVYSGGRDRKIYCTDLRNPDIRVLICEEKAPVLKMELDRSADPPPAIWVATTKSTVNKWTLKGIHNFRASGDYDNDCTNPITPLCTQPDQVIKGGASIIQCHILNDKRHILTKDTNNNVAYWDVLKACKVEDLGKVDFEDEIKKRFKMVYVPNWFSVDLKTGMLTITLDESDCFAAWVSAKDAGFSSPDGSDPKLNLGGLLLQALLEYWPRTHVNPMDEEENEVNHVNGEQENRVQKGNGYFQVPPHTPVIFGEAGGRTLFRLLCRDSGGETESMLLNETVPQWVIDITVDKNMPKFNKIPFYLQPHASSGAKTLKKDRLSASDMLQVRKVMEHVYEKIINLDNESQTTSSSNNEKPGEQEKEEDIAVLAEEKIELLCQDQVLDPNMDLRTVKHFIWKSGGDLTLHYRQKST

Consider `COc1cnc(-c2ccccc2C(C)C)nc1N(C)Cc1ccc(-c2ccccn2)cc1` [US20250289799, Example 1], for which the IC50 was found to be 26 nM.
Regarding `COc1cnc(-c2ccccc2C(C)C)nc1N(C)CC1CCN(c2ccccn2)CC1` [US20250289799, Example 2], the half-maximal inhibitory concentration (IC50) amounted to 14 nM.
Consider `COc1cnc(-c2ccccc2C(C)C)nc1N(C)Cc1ccc(-c2nc(C(F)(F)F)cn2C)cc1` [US20250289799, Example 3], for which the 50% inhibitory concentration (IC50) is 2.8 nM.
In the case of `COc1cnc(-c2ccccc2C(C)C)nc1NCc1ccc(-c2nc(C(F)(F)F)cn2C)cc1` [US20250289799, Example 4] it was 1.2 nM; in that of `COc1cnc(-c2ccccc2C(C)C)nc1NCC1CCN(c2ccccn2)CC1` [US20250289799, Example 5], 7.6 nM; in that of `COc1cnc(-c2ccccc2C(C)C)nc1NCc1ccc(-n2nc(C(F)(F)F)cc2C)cc1` [US20250289799, Example 7], 4.5 nM.
Compound `COc1cnc(-c2c(OC)ncnc2C2CC2)nc1N(C)Cc1ccc(-c2nc(C(F)(F)F)cn2C)cc1` [US20250289799, Example 8] yielded a 50% inhibitory concentration (IC50) of 1.4 nM.
In the case of `COc1ncnc(C2CC2)c1-c1ncc2c(n1)N(Cc1ccc(-c3ccccn3)cc1)CCO2` [US20250289799, Example 9] it was 35 nM.
In the case of `COc1ncnc(C2CC2)c1-c1ncc2c(n1)N(CC1CCN(c3ccccn3)CC1)CCO2` [US20250289799, Example 10] it was 564 nM.
In the case of `COc1cnc(-c2ccccc2C(C)C)nc1NCc1ccc(-c2nccn3ccnc23)cc1` [US20250289799, Example 11] it was 22 nM; in that of `Cc1cc(C(F)(F)F)nn1-c1ccc(CN2C(=O)COc3cnc(-c4ccccc4C(C)C)nc32)cc1` [US20250289799, Example 15], 6.8 nM; in that of `CC(C)c1ccccc1-c1ncc(C(F)(F)F)c(NCc2ccc(-c3nc(C(F)(F)F)cn3C)cc2)n1` [US20250289799, Example 17], 3.9 nM.
Compound `COc1cnc(-c2c(OC)ncnc2C2CC2)nc1N(C)Cc1ccc(-c2ccccn2)cc1` [US20250289799, Example 19] registered an IC50 of 24 nM.
As for `COc1ncnc(C2CC2)c1-c1ncc2c(n1)N(CC1CCN(c3nc(C(F)(F)F)cn3C)CC1)CCO2` [US20250289799, Example 20], the figure is 91.5 nM; as for `CC(C)c1ccccc1-c1ncc2c(n1)N(CC1CCN(c3nc(C(F)(F)F)cn3C)CC1)C(=O)CO2` [US20250289799, Example 24], 8.8 nM; as for `CC(C)c1ccccc1-c1ncc(C(F)(F)F)c(NCC2CCN(c3nc(C(F)(F)F)cn3C)CC2)n1` [US20250289799, Example 25], 3.7 nM.
As for `COc1cnc(-c2c(OC)ncnc2C2CC2)nc1NCc1ccc(-n2nc(C(F)(F)F)cc2C)cc1` [US20250289799, Example 26], the figure is 4.6 nM.
In the case of `COc1cnc(-c2c(OC)ncnc2C2CC2)nc1NCc1ccc(-c2nc(C(F)(F)F)cn2C)cc1` [US20250289799, Example 29] it was 4.8 nM; in that of `COc1ncnc(C2CC2)c1-c1ncc2c(n1)N(CC1CCN(c3nc(C(F)(F)F)cn3C)CC1)C(=O)CO2` [US20250289799, Example 30], 37 nM; in that of `CC(C)c1ccccc1-c1nc(NCc2ccc(-c3ccccn3)cc2)c2occc2n1` [US20250289799, Example 32], 2.8 nM.
Turning to `CC(C)c1ccccc1-c1nc(NCc2ccc(-c3nc(C(F)(F)F)cn3C)cc2)c2occc2n1` [US20250289799, Example 33], the IC50 stood at 1.2 nM.
As for `COc1ncnc(C2CC2)c1-c1nc(NCc2ccc(-c3nc(C(F)(F)F)cn3C)cc2)c2occc2n1` [US20250289799, Example 35], the figure is 9.6 nM; as for `CC(C)c1ccccc1-c1nc(NCc2ccc(-c3ccccn3)cc2)c2[nH]ccc2n1` [US20250289799, Example 36], 22.4 nM; as for `COc1ncnc(C2CC2)c1-c1nc(NCc2ccc(-c3ccccn3)cc2)c2[nH]ccc2n1` [US20250289799, Example 37], 51 nM.
In the case of `CC(C)c1ccccc1-c1nc(NCc2ccc(-c3nc(C(F)(F)F)cn3C)cc2)c2ncccc2n1` [US20250289799, Example 40] it was 2.3 nM; in that of `COc1cnc(-c2ccccc2C(C)C)nc1NCc1ccc2c(c1)CN(C1CCC(=O)NC1=O)C2=O` (stereo not given) [US20250289799, Example 41], 1260 nM; in that of `COc1ncnc(C2CC2)c1-c1nc(NCc2ccc(-n3nc(C(F)(F)F)cc3C)cc2)c2occc2n1` [US20250289799, Example 50], 5.2 nM.
Regarding `Cc1cc(C(F)(F)F)nn1-c1ccc(CNc2nc(-c3ccccc3C(C)C)nc3ccoc23)cc1` [US20250289799, Example 57], the IC50 came out at 4.4 nM.
As for `COc1cnc(-c2ccccc2C(C)C)nc1N(C)CC1CCC(c2ccccn2)CC1` (stereo not given) [US20250289799, Example 61], the figure is 11 nM.
In the case of `COc1cnc(-c2ccccc2C(C)C)nc1N(C)CC1CCN(c2nc(C(F)(F)F)cn2C)CC1` [US20250289799, Example 62] it was 2.1 nM; in that of `COc1cnc(-c2ccccc2C(C)C)nc1NCC1CCC(c2ccccn2)CC1` (stereo not given) [US20250289799, Example 63], 3.3 nM; in that of `COc1cnc(-c2ccccc2C(C)C)nc1NCc1ccc(-c2ccccn2)cc1` [US20250289799, Example 64], 3.7 nM.
In the case of `COc1cnc(-c2ccccc2C(C)C)nc1NCC1CCN(c2nc(C(F)(F)F)cn2C)CC1` [US20250289799, Example 65] it was 2.1 nM.
In the case of `COc1cnc(-c2ccccc2C(C)C)nc1NCc1ccc(-c2ccc(C)cn2)cc1` [US20250289799, Example 66], the 50% inhibitory concentration (IC50) is 5.6 nM.
In the case of `COc1cnc(-c2ccccc2C(C)C)nc1NCc1ccc(OCc2ccccn2)cc1` [US20250289799, Example 67] it was 5.3 nM.
As for `CCOCCOc1ccc(CNc2nc(-c3ccccc3C(C)C)ncc2OC)cc1` [US20250289799, Example 68], the figure is 3.2 nM; as for `COc1cc(CNc2nc(-c3ccccc3C(C)C)ncc2OC)ccc1-n1nc(C(F)(F)F)cc1C` [US20250289799, Example 69], 9.2 nM.
As for `CC(C)Oc1cnc(-c2ccccc2C(C)C)nc1N(C)CC1CCN(c2nc(C(F)(F)F)cn2C)CC1` [US20250289799, Example 70], the figure is 19.4 nM; as for `CC(C)Oc1cnc(-c2ccccc2C(C)C)nc1N(C)Cc1ccc(-c2nc(C(F)(F)F)cn2C)cc1` [US20250289799, Example 71], 9.9 nM; as for `CC(C)Oc1cnc(-c2ccccc2C(C)C)nc1NCC1CCN(c2nc(C(F)(F)F)cn2C)CC1` [US20250289799, Example 72], 6.1 nM.
Take `CC(C)Oc1cnc(-c2ccccc2C(C)C)nc1NCc1ccc(-c2nc(C(F)(F)F)cn2C)cc1` [US20250289799, Example 73]: the IC50 is 3.6 nM.
In the case of `CC(C)Oc1cnc(-c2ccccc2C(C)C)nc1NCC12CCC(c3ccc(C(F)(F)F)cn3)(CC1)CC2` [US20250289799, Example 74] it was 873 nM; in that of `CC(C)c1ccccc1-c1ncc(C(F)(F)F)c(NCC2CCN(c3nc(C(F)(F)F)cn3C)CC2)n1` [US20250289799, Example 75], 3.7 nM.
In the case of `CC(C)c1ccccc1-c1ncc(C(F)(F)F)c(NCC2CCN(c3ccccn3)CC2)n1` [US20250289799, Example 76] it was 30.1 nM; in that of `CC(C)c1ccccc1-c1nc(NCc2ccc3c(c2)CCN(C)C3=O)c2occc2n1` [US20250289799, Example 77], 28 nM; in that of `CC(C)c1ccccc1-c1nc(NCc2ccc3c(c2)CCN(C(C)C)C3=O)c2occc2n1` [US20250289799, Example 78], 6.4 nM.
As for `CCOCCOc1ccc(CNc2nc(-c3ccccc3C(C)C)nc3ccoc23)cc1` [US20250289799, Example 79], the figure is 4.5 nM; as for `COC1CC(Oc2ccc(CNc3nc(-c4ccccc4C(C)C)nc4ccoc34)cc2)C1` (stereo not given) [US20250289799, Example 80], 26 nM.
In turn, `COc1cc(-c2nc(C(F)(F)F)cn2C)ccc1CNc1nc(-c2ccccc2C(C)C)nc2ccoc12` [US20250289799, Example 81] gave a half-inhibitory concentration (IC50) of 3.7 nM.
As for `COc1cc(CNc2nc(-c3ccccc3C(C)C)nc3ccoc23)ccc1-c1nc(C(F)(F)F)cn1C` [US20250289799, Example 82], the figure is 1.7 nM; as for `COc1cc(-n2nc(C(F)(F)F)cc2C)ccc1CNc1nc(-c2ccccc2C(C)C)nc2ccoc12` [US20250289799, Example 83], 4.4 nM; as for `COc1cc(CNc2nc(-c3ccccc3C(C)C)nc3ccoc23)ccc1-n1nc(C(F)(F)F)cc1C` [US20250289799, Example 84], 9 nM.
As for `C#Cc1cnc(-c2ccccc2C(C)C)nc1NCc1ccc(-c2nc(C(F)(F)F)cn2C)cc1` [US20250289799, Example 85], the figure is 0.47 nM; as for `CC(C)c1ccccc1-c1ncc(OC(F)F)c(NCc2ccc(-c3nc(C(F)(F)F)cn3C)cc2)n1` [US20250289799, Example 86], 1.1 nM.
As for `CC(C)c1ccccc1-c1ncc(N2CCOCC2)c(NCc2ccc(-c3nc(C(F)(F)F)cn3C)cc2)n1` [US20250289799, Example 87], the figure is 6.2 nM.
As to `CC(C)c1ccccc1-c1ncc(N2CCN(C)CC2)c(NCc2ccc(-c3nc(C(F)(F)F)cn3C)cc2)n1` [US20250289799, Example 88], the IC50 was determined as 10 nM.
In the case of `COC(=O)Cc1cnc(-c2ccccc2C(C)C)nc1NCc1ccc(-c2nc(C(F)(F)F)cn2C)cc1` [US20250289799, Example 91] it was 1.3 nM; in that of `COc1cnc(-c2c(OC)ncnc2C2CC2)nc1N(C)CC1CCN(c2nc(C(F)(F)F)cn2C)CC1` [US20250289799, Example 92], 3.3 nM; in that of `COc1cnc(-c2c(OC)ncnc2C2CC2)nc1N(C)Cc1ccc(-c2nc(C(F)(F)F)cn2C(C)C)cc1` [US20250289799, Example 93], 1.5 nM.
In the case of `COc1cnc(-c2c(OC)ncnc2C2CC2)nc1NCc1ccc(-c2ccccn2)cc1` [US20250289799, Example 94] it was 6.5 nM.

For orientation: IC50 means the concentration at which inhibition is half-maximal. The low end stands for greater potency, the high end for weaker potency.
